Measured values published in article PMC9289467, “A Novel Multifunctional 5,6-Dimethoxy-Indanone-Chalcone-Carbamate Hybrids Alleviates Cognitive Decline in Alzheimer’s Disease by Dual Inhibition of Acetylcholinesterase and Inflammation” (Frontiers in Aging Neuroscience, 2022).

Columns and labels:
[1] = test system: recognition memory; assay: Novel object recognition task; assay type: in vivo, APP/PS1 mice
Experimental: APP/PS1 mice of ages 6 months were randomly divided into vehicle (APP/PS1, n = 10) and treatment groups (AP5, n = 10), which were intragastrically administered with AP5 (40 mg/kg) once daily for consecutive 5 months. AP5 was dissolved in distilled water containing 1% sodium carboxymethyl cellulose.
To investigate whether AP5 treatment plays a key role in cognition improvement of APP/PS1 mice models, the five different behavioral tests were sequentially carried out in the following order: open field, novel object recognition task, spatial object-location task, Y-maze, and Morris water maze (MWM). AP5 was also administered daily during the test periods. […]
To study the kinetics of Aβ-AChE fibril complex formation, 10 μM Aβ was mixed with AChE (R005282, Roche, Basel, Switzerland) and different concentrations AP5 and incubated with 10 μM ThT and 50 mM glycine-NaOH (pH 8.5) at 37°C, the ThT fluorescence was continually measured for 24 h at 30 min intervals. […] Fluorescence emission at485 nm was measured on a Spectra MAX GeminiXS fluorometerat an excitation wavelength of 450 nm. […]
To assess locomotor activity, mice were individually tested in an open-field box (38 cm × 38 cm × 25 cm). The movement of the mouse was tracked for 5 min with open fieldvideo analysis system, and the total move distances was automatically recorded as adirect measure of locomotor activity. […]

[2] = Single-dose pharmacokinetics in mice (plasma and brain, UPLC-TSQ/MS); assay type: in vivo, C57BL/6J mice; settings: mouse
Experimental: To determine the pharmacokinetics of AP5 in mice, the mice were administered a single dose of AP5 by i.v. and oral gavage dose routes. The plasma and brain homogenate were detected by UPLC-TSQ/MS(Thermo Fisher Scientific, Waltham, MA, United States). The plasma drug concentrations were analyzed for PK data by DAS (Drug and Statistics) Version 3.0 (BioGuider Corporation, Shanghai, China). Bioavailability (F%) after oral administration was calculated as AUCINF p.o./AUCINF i.v./4 × 100. AUCINF p.o. and AUCINF i.v. represent the area under the plasma concentration–time curve extrapolated to infinity after single-dose per os and intravenous injection, respectively. The extent of brain penetration was measured by the brain-to-plasma distribution ratio (B/P). The B/P value was calculated as: AUCINFbrain/AUCINF plasma × 100. AUCINF brain represents the area under the brain concentration–time curve extrapolated to infinity after a single-dose per os.
We next determine the pharmacokinetic profile of AP5 in male C57BL/6J mice given a single intravenous (i.v.) dose of 10 mg/kg or single per os (p.o.) dose of 40 mg/kg, respectively. […] Importantly, we determined AP5 in the brain homogenate with the highest concentration of 95.3 ng/mL at 2 h (Figures 1D,E). […]
Supplementary materials and methods
Prepations ofspecimen for pharmacokinetics analysis
24 h afterdosing. Brains were collected at0, 0.25, 0.5,2, 4,8 and 24 h after administration.Plasma extractions were performed by adding 90 μL methanol and 2 μL internalstandard letrozole (500 ng/mL) to a30 µL plasma sample. Brain samples were homogenized in 1 mL PBS per gram brain tissueby handheld homogenizer.
Then 90 μL methanol and 2 μL letrozolewere added to 30 µl brainhomogenates. The samples were vortexed for 3 min and centrifuged 15 min at25,000 g.The plasma and brainhomogenate were analyzed by UPLC-TSQ/MS (Thermo Fisher Scientific, Waltham, MA, USA). Samples were compared to a calibrationcurve prepared ina similarmanner by spiking blank controlplasma or homogenate with standards prepared inmethanol and then extractedas above. […]

[3] = male, C57BL/6J, brain homogenate, po, brain, p.o. 40 mg/kg
[4] = male, C57BL/6J, iv, plasma, i.v. 10 mg/kg
[5] = male, C57BL/6J, plasma, iv, 10 mg/kg, i.v. 10 mg/kg
[6] = male, C57BL/6J, plasma, po, 40 mg/kg, p.o. 40 mg/kg
[7] = male, C57BL/6J, po, plasma, p.o. 40 mg/kg

With `CCN(C)C(=O)Oc1cccc(/C=C2\Cc3cc(OC)c(OC)cc3C2=O)c1` [AP5, (E)-3-((5,6-dimethoxy-1-oxo-1,3-dihydro-2H-inden-2-ylidene)-methyl)phenylethyl(methyl)carbamate] the “discrimination index, novel object recognition” value ([1]; at 1 h, vs APP/PS1 mice) was “significantly higher”, the “discrimination index, novel object recognition” value ([1]; at 24 h, vs APP/PS1 mice without treatment) was “significantly better” and the “B/P (brain-to-plasma distribution ratio, brain penetration)” value ([2]; AUCINF brain/AUCINF plasma × 100, p.o. 40 mg/kg, 40 mg/kg) was 10.23%. For the same molecule, the Cl ([2]; brain, p.o. 40 mg/kg) was 53.77 L/h/kg, the Vss ([2]; brain, p.o. 40 mg/kg) was 412.6 L/kg and the AUC(0-inf) [2, 3] was 744 ng·h/mL. It also gave an AUC(0-t) [2, 3] of 706 ng·h/mL, a half-life [2, 3] of 319 min and an AUC(0-inf) [2, 4] of 2700 ng·h/mL. For the same molecule, the AUC(0-t) [2, 4] was 2600 ng·h/mL, the clearance [2, 4] was 125 mL/min/kg and the half-life [2, 4] was 200 min. It also gave a Vd ([2]; male, C57BL/6J, iv, plasma, i.v. 10 mg/kg, read-out: Vss) of 36.3 L/kg, a Tmax ([2]; male, C57BL/6J, brain homogenate, po, 40 mg/kg, brain, p.o. 40 mg/kg) of 1.5 h and a Cmax ([2]; male, C57BL/6J, brain homogenate, po, 40 mg/kg, p.o. 40 mg/kg) of 95.4 ng/mL. For the same molecule, the Kp ([2]; male, C57BL/6J, brain/plasma, po, 40 mg/kg, AUCINF brain/AUCINF plasma × 100, p.o. 40 mg/kg, read-out: B/P (brain-to-plasma distribution ratio, brain penetration)) was greater than 0.1, the Cmax [2, 5] was 5440 ng/mL and the Tmax [2, 5] was 0.083 h. For the same molecule, the Cmax [2, 6] was 2090 ng/mL, the Tmax [2, 6] was 2 h and the bioavailability ([2]; male, C57BL/6J, plasma, oral, AUCINF p.o./AUCINF i.v./4 × 100, p.o. 40 mg/kg, i.v. 10 mg/kg, read-out: F (oral bioavailability)) was 67.2%. It also gave an AUC(0-inf) [2, 7] of 7260 ng·h/mL, an AUC(0-t) [2, 7] of 6990 ng·h/mL and a half-life [2, 7] of 284 min. For the same molecule, the Cl ([2]; plasma, p.o. 40 mg/kg) was 2.756 L/h/kg and the Vss ([2]; plasma, p.o. 40 mg/kg) was 18.79 L/kg.
